The values below come from PubChem BioAssay (NCI).

Among the test systems are ACHN renal; UACC-62 melanoma; OVCAR-3 ovarian; U251 CNS; 786-0 renal; SR leukemia; HL-60(TB) leukemia; OVCAR-8 ovarian; MALME-3M melanoma; OVCAR-4 ovarian.
What all share (test): growth of human tumour cells (NCI), 48 h

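Cells were grown in 96-well plates and exposed to each compound for 48 hours at five concentrations; endpoints were interpolated linearly between bracketing concentrations, or set to the highest concentration if not reached. GI50: concentration for 50% inhibition of growth. The concentration for full growth arrest is given as TGI.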

With `O=[N+]([O-])c1ccc(/C=C\c2ccc3c(c2)OCO3)c([N+](=O)[O-])c1`, the TGI with ACHN renal was 33.6 µM; with UACC-62 melanoma it was 43.2 µM; in the test with OVCAR-3 ovarian it was 43.1 µM; with U251 CNS it was 28.9 µM; in the test with 786-0 renal it was more than 100 µM; in the test with SR leukemia, 23.6 µM. Also, the figures for the TGI in the test with HL-60(TB) leukemia, with OVCAR-8 ovarian and with MALME-3M melanoma were 39 µM, 45.5 µM and 46.5 µM, respectively.

For `CC(C)(C)c1cc(C(OCCl)(C(F)(F)F)C(F)(F)F)c2c(c1)C(C(F)(F)F)(C(F)(F)F)OC21c2ccccc2C(=O)c2ccccc21`, the TGI in the test with ACHN renal, in the test on OVCAR-3 ovarian, with U251 CNS, in the test with 786-0 renal, in the test with SR leukemia and with OVCAR-4 ovarian was more than 100 µM in each case. Also, the TGI in the test with OVCAR-8 ovarian and in the test with MALME-3M melanoma was more than 100 µM in each case.

On to `CCN(CC)C(=O)CCCCCn1c2ccccc2c2c3c(c4c5ccccc5[nH]c4c21)C(=O)N(O)C3=O`, for which the GI50 was 4.1 µM with UACC-62 melanoma; 1.96 µM with U251 CNS; 2.12 µM in the test with 786-0 renal; 1.56 µM in the test on SR leukemia; 5.06 µM in the test on OVCAR-4 ovarian; 2.8 µM with HL-60(TB) leukemia. In addition, the GI50 in the test with OVCAR-8 ovarian is 4.1 µM; in the test on MALME-3M melanoma it was 8.2 µM. Also, the TGI in the test on UACC-62 melanoma was 20.1 µM; in the test on U251 CNS it was 3.78 µM; in the test with 786-0 renal, 5.04 µM; in the test with SR leukemia, 13.6 µM; in the test on OVCAR-4 ovarian, more than 100 µM; in the test with HL-60(TB) leukemia, 7.63 µM. Moreover, the TGI in the test with OVCAR-8 ovarian is 28.3 µM; with MALME-3M melanoma, 65.7 µM.

As to `CC1(C)CC(O)CC(C)(C)N1.CC1(C)CC(O)CC(C)(C)N1.CC1(C)CC(O)CC(C)(C)N1.CC1(C)CC(O)CC(C)(C)N1.Cl.[Ti]`, the GI50 in the test on ACHN renal, in the test with UACC-62 melanoma, with OVCAR-3 ovarian, in the test with U251 CNS, in the test on 786-0 renal and in the test on SR leukemia was more than 100 µM in each case. Further, the GI50 in the test with OVCAR-4 ovarian and in the test on OVCAR-8 ovarian was more than 100 µM each time. Besides, the TGI in the test with ACHN renal, with UACC-62 melanoma, with OVCAR-3 ovarian, in the test on U251 CNS, in the test with 786-0 renal and in the test on SR leukemia was more than 100 µM throughout. Further, the TGI with OVCAR-4 ovarian and with OVCAR-8 ovarian was more than 100 µM each time.

Turning to `COC(=O)c1ccc2c(c1)C(=O)c1c-2n(CCCCl)c(=O)c2cc(OC)c(OC)cc12`, the GI50 in the test on ACHN renal was more than 100 µM; with UACC-62 melanoma, more than 100 µM; in the test on OVCAR-3 ovarian, more than 100 µM; in the test on U251 CNS it was more than 100 µM; with 786-0 renal, more than 100 µM; with SR leukemia, 0.061 µM. Further, the GI50 with OVCAR-4 ovarian, with OVCAR-8 ovarian and in the test with MALME-3M melanoma was more than 100 µM throughout. The TGI in the test with ACHN renal, in the test on UACC-62 melanoma, in the test with OVCAR-3 ovarian, in the test on U251 CNS, in the test with 786-0 renal and with SR leukemia was more than 100 µM in each case. The TGI in the test with OVCAR-4 ovarian, in the test with OVCAR-8 ovarian and in the test on MALME-3M melanoma was more than 100 µM throughout.

Regarding `CC(=O)OC1COC(Oc2c(C)c3c4c(c2O)[C@@H](C)CC[C@@H]4[C@@H](C)C[C@H]3C=C(C)C)C(O)C1O` (some centres undefined), the GI50 was 18.5 µM in the test with ACHN renal; 18.8 µM in the test with UACC-62 melanoma; 16.1 µM with OVCAR-3 ovarian; 19.5 µM in the test with U251 CNS; 19.2 µM in the test on 786-0 renal; 9.13 µM in the test with SR leukemia. Besides, the GI50 in the test with OVCAR-4 ovarian was 25.6 µM; with OVCAR-8 ovarian it was 20.6 µM; with MALME-3M melanoma, 13.2 µM. Also, the TGI in the test on ACHN renal came out at 36.8 µM; with UACC-62 melanoma, 39.4 µM; in the test on OVCAR-3 ovarian, 31.3 µM; in the test on U251 CNS, 41.6 µM; in the test on 786-0 renal, 43.2 µM; with SR leukemia it was 25.7 µM. Also, the TGI was found to be 86.5 µM in the test with OVCAR-4 ovarian, 50.3 µM with OVCAR-8 ovarian and 27.3 µM in the test on MALME-3M melanoma.

Take `O=C(Nc1cccc(-n2cc(-c3ccncc3)c(-c3ccc(O)c(Cl)c3)n2)c1)Nc1ccc(Cl)c(Cl)c1`: the GI50 in the test with ACHN renal was 2.02 µM; in the test on UACC-62 melanoma, 1.99 µM; in the test on U251 CNS, 1.25 µM; in the test on 786-0 renal, 1.58 µM; with SR leukemia, 0.43 µM; in the test on OVCAR-4 ovarian it was 2.4 µM. The GI50 in the test on HL-60(TB) leukemia is 2.71 µM; in the test with OVCAR-8 ovarian, 1.65 µM; in the test with MALME-3M melanoma, 2.11 µM. Further, the TGI with ACHN renal worked out at 7.81 µM; in the test on UACC-62 melanoma, 4.94 µM; with U251 CNS, 5.61 µM; in the test on 786-0 renal, 7.12 µM; in the test on SR leukemia it was 2.75 µM; in the test on OVCAR-4 ovarian, 9.5 µM. The TGI with HL-60(TB) leukemia was determined as 7.02 µM; in the test with OVCAR-8 ovarian, 5.61 µM; in the test on MALME-3M melanoma, 6.86 µM.

Consider `COc1cc(OC)c(/C=C/C(=O)c2c(N)cc(OC)cc2OC)c(OC)c1`, for which the GI50 is 0.722 µM in the test on ACHN renal; 0.379 µM with UACC-62 melanoma; 0.28 µM in the test with OVCAR-3 ovarian; 0.504 µM in the test with U251 CNS; 1.49 µM with 786-0 renal; 0.242 µM in the test with SR leukemia. The values for the GI50 in the test with OVCAR-4 ovarian, in the test on HL-60(TB) leukemia and in the test with OVCAR-8 ovarian were 13.6 µM, 0.3 µM and 0.712 µM, respectively. In addition, the TGI in the test on ACHN renal is more than 100 µM; in the test on UACC-62 melanoma, more than 100 µM; in the test on OVCAR-3 ovarian, 1.1 µM; in the test with U251 CNS it was more than 100 µM; in the test on 786-0 renal it was more than 75 µM; in the test on SR leukemia, more than 100 µM. In addition, the TGI in the test with OVCAR-4 ovarian, with HL-60(TB) leukemia and with OVCAR-8 ovarian was more than 100 µM throughout.

For the molecule `CCOC(=O)C1=C(C)N(Cc2ccc(Cl)cc2Cl)[C@]2(C#N)C(O)=C(Cl)C(Cl)=C(O)[C@]12C#N`, the GI50 is more than 100 µM with ACHN renal; 46.7 µM with OVCAR-3 ovarian; 44.8 µM in the test on U251 CNS; more than 100 µM with 786-0 renal; 16 µM in the test on SR leukemia; more than 100 µM with OVCAR-4 ovarian. Moreover, the GI50 in the test on HL-60(TB) leukemia is 31.9 µM; with OVCAR-8 ovarian it was 73.4 µM; in the test with MALME-3M melanoma, more than 100 µM. In addition, the TGI in the test on ACHN renal was more than 100 µM; in the test with OVCAR-3 ovarian, more than 100 µM; in the test with U251 CNS, more than 100 µM; with 786-0 renal it was more than 100 µM; in the test with SR leukemia, 38.9 µM; with OVCAR-4 ovarian it was more than 100 µM. Besides, the TGI was 76.9 µM with HL-60(TB) leukemia, more than 100 µM in the test on OVCAR-8 ovarian and more than 100 µM with MALME-3M melanoma.
